Reference: patent US11660328B2, “GLP-2 analogs and peptibodies for administration before, during or after surgery” (TAKEDA PHARMACEUTICAL COMPANY LIMITED, priority 2017, dated 2023)

System: small intestine
Test: Histology study of villi length and crypt depth (H&E sections, imagescope)
Type: in vivo, female CD-1 mice
Conditions: after administration vs without treatment, FIGS. 1-3; for villus height: small intestine
Experimental: Various doses of GLP-2 peptibody B264 were analyzed to assess the pharmacodynamic plateau, with the primary endpoint a measurement of the small intestinal weight relative to the total body weight and a histology study of the length of villi. 11 groups of six female CD-1 mice each were formed. [table] For histology, four micron paraffin sections were prepared for H&E and Ki67 IHC staining. After whole slide scanning, an imagescope was used to measure villi length and crypt depth, and to analyze Ki67. The antibody against Ki67 is a rabbit antibody sold by Adcam®, catalog number ab 616667. The antibody was used at a working concentration of 1:100 and was detected using a Leica® Refine Kit. […] See, e.g., Example 13 of U.S. Provisional Application No. 62/548,601, filed Aug. 22, 2017 for more data and examples with respect to GLP-2 peptibody B264, GLP-2 peptibody […], and a GLP-2[[…]] peptide.

Molecule	crypt depth in the small intestine	villus height
CC[C@H](C)[C@H](NC(=O)[C@H](Cc1ccccc1)NC(=O)[C@H](CC(=O)O)NC(=O)[C@H](CCCNC(=N)N)NC(=O)[C@H](C)NC(=O)[C@H](C)NC(=O)[C@H](CC(C)C)NC(=O)[C@H](CC(N)=O)NC(=O)[C@H](CC(=O)O)NC(=O)[C@H](CC(C)C)NC(=O)[C@@H](NC(=O)[C@@H](NC(=O)[C@H](CC(N)=O)NC(=O)[C@H](CCSC)NC(=O)[C@H](CCC(=O)O)NC(=O)[C@H](CC(=O)O)NC(=O)[C@H](CO)NC(=O)[C@H](Cc1ccccc1)NC(=O)[C@H](CO)NC(=O)CNC(=O)[C@H](CC(=O)O)NC(=O)CNC(=O)[C@@H](N)Cc1c[nH]cn1)[C@@H](C)O)[C@@H](C)CC)C(=O)N[C@@H](CC(N)=O)C(=O)N[C@@H](Cc1c[nH]c2ccccc12)C(=O)N[C@@H](CC(C)C)C(=O)N[C@H](C(=O)N[C@@H](CCC(N)=O)C(=O)N[C@H](C(=O)N[C@@H](CCCCN)C(=O)N[C@H](C(=O)N[C@H](C(=O)N[C@@H](CC(=O)O)C(=O)O)[C@@H](C)O)[C@@H](C)CC)[C@@H](C)O)[C@@H](C)CC [h(Gly2)GLP-2, teduglutide, reference compound]	increased crypt depth	increased villus height
GLP-2 peptibody K274: GLP-2 peptibody having the amino acid sequence of SEQ ID NO: 4 (GLP-2[A2G]-linker-IgG1 Fc fusion)	increased crypt depth	increased villus height
